Values after ≈ are worked out from the molar mass of the structure shown. Residues, ends and D or L forms follow the SMILES beside them.
Tests used:
Format in all cases: cell-based
[1] = system: Pseudomonas aeruginosa PAO1 strain H103; settings: PAO1
Method: The biological activity of the peptides can be determined by standard methods known to those of skill in the art, such as “minimal inhibitory concentration (MIC)” assay described in the present examples, whereby the lowest concentration at which no change in OD is observed for a given period of time is recorded as MIC.
(§1) Minimal inhibitory concentration (MIC) determination. The MIC of the peptides were measured using a modified broth microdilution method in Mueller Hinton (MH) medium (Wu M, Hancock R E W. 1999. Interaction of the cyclic antimicrobial cationic peptide bactenecin with the outer and cytoplasmic membrane. J Biol Chem 274, 29-35). Briefly, the peptides were dissolved and stored in glass vials. The assay was performed in sterile 96-well polypropylene microtitre plates were used. Serial dilutions of the peptides to be assayed were performed in 0.01% acetic acid (Fisher) containing 0.2% bovine serum albumin (Boehringer Mannheim GmbH) at 10× the desired final concentration. Ten microlitres of the 10× peptides were added to each well of a 96-well polypropylene plate containing 90 μl of MH media per well. Bacteria were added to the plate from an overnight culture at 2-7×10^5 colony forming units/ml and incubated over night at 37° C. The MIC was taken as the concentration at which no growth was observed.
(§2) Strains. For the killing assay a mini-Tn5-lux mutant in Pseudomonas aeruginosa H103 was used. The strain is called H1001 and contains a fliC::luxCDABE transcriptional fusion resulting in constitutive expression of luciferase. The bacterial strains used for the antimicrobial activity assays included Escherichia coli UB1005 (F-, nalA37, metB1), a wild-type Salmonella enterica ssp. typhimurium (S. typhimurium), wild-type Pseudomonas aeruginosa PAO1 strain H103, Enterococcus faecalis ATCC29212, Staphylococcus aureus ATCC25923, and a clinical isolate of Staphylococcus epidermidis obtained from Dr. D. Speert (Department of Medicine, University of British Columbia). Antifungal activity was tested using a lab isolate of Candida albicans obtained from Dr. B. Dill (Department of Microbiology and Immunology, University of British Columbia).

[2] = system: lab isolate of Candida albicans; settings: lab isolate of
Method: as §1, §2

[3] = system: wild-type Salmonella enterica ssp. typhimurium
Method: as §1, §2

[4] = system: Staphylococcus aureus ATCC25923; settings: ATCC25923
Method: as §1, §2

[5] = system: Escherichia coli UB1005; settings: UB1005
Method: as §1, §2

[6] = system: clinical isolate of Staphylococcus epidermidis; settings: clinical isolate of
Method: as §1, §2

[7] = system: Enterococcus faecalis ATCC29212; settings: ATCC29212
Method: as §1, §2

[8] = system: Pseudomonas aeruginosa strain H1001 fliC::luxCDABE; test: Luminescence (lux) killing assay, peptides cleaved from cellulose support; parameters: key: − for minimal or no activity; + for weak activity; +/++ for intermediate activity; ++ strong activity; settings: P. aeruginosa strain H1001, 4 hours incubation, luminescence as indicator
Method: Assay for the cleaved peptides from cellulose support. The peptides were cleaved from the dried membrane in an ammonia atmosphere overnight, resulting in free peptides with an amidated C-terminus. The free peptides contained two β-alanines at the C-terminus, in addition to being amidated due to the linker between the cellulose membrane and the peptide sequence. The peptide spots were punched out and transferred in a 96-well microtiter plate. Serial dilutions were carried out from the membrane spots. Four rows were filled with four controls including 2×Bac2A and 2× an unrelated peptide. The other eight rows were used for serial dilution steps of the peptide variants. An overnight culture of Pseudomonas aeruginosa strain H1001 was diluted 1:500 using either LB media or 100 mM Tris buffer pH 7.3, 20 mM glucose and was added to the wells (100 μl/well) containing the peptide spots. In all other wells 50 μl were added. The microtiter plate was incubated for 30 min at 37° C. to release the peptides from the membrane. Subsequently, a dilution series were performed and the plate was incubated at 37° C. The luminescence produced by the FMN dependent luciferase system were detected in a time dependent manner using a Tecan Spectra Fluor plus.
as §2
Peptide synthesis on cellulose is a very effective and inexpensive way to investigate many different peptide variants for one particular activity. However, one of the problems of this technique is the low peptide amount synthesized on the membrane, about 280 nmol per cm^2. An average peptide spot used for the experiments presented is about 0.3 cm^2. Therefore, an assay had to be developed that was sensitive enough to show activity with this amount of peptides. P. aeruginosa H1001 has a luciferase gene cassette incorporated into the bacterial chromosome in a gene fliC (involved in flagellar biosynthesis) that is constitutively expressed. It will thus produce light if FMN is present. When this strain is killed, e.g. by peptides, the amount of light produced will decrease due to a decrease in FMN levels in the killed cells. This action can thus be monitored by detecting luminescence in a microtiter plate luminescence reader over time. The volume and amount of cells per well were optimized for this assay. After screening, we were able to monitor the killing action with small amounts of the parent peptide Bac2A (2 μg/ml of free peptide).

CC[C@H](C)[C@H](NC(=O)[C@H](CCCNC(=N)N)NC(=O)[C@H](CC(C)C)NC(=O)[C@H](CCCNC(=N)N)NC(=O)[C@@H](N)CCC(N)=O)C(=O)N[C@@H](CCCNC(=N)N)C(=O)N[C@H](C(=O)N[C@@H](C)C(=O)N[C@H](C(=O)N[C@H](C(=O)N[C@@H](CCCNC(=N)N)C(=O)N[C@@H](C)C(N)=O)[C@@H](C)CC)C(C)C)C(C)C [HH1, QRLRIRVAVIRA] (H-QRLRIRVAVIRA-NH2)
MIC P. aerug [1]: 50 µg/mL (≈ 34.5 µM)
MIC C. albicans [2]: 25 µg/mL (≈ 17.2 µM)
MIC S. typhi [3]: 25 µg/mL (≈ 17.2 µM)
MIC S. aureus [4]: 50 µg/mL (≈ 34.5 µM)
MIC E. coli [5]: 6 µg/mL (≈ 4.14 µM)
MIC S. epi. [6]: 12 µg/mL (≈ 8.28 µM)
MIC E. faecalis [7]: 50 µg/mL (≈ 34.5 µM)

CC[C@H](C)[C@H](NC(=O)[C@H](CCCNC(=N)N)NC(=O)[C@H](CC(C)C)NC(=O)[C@H](CCC(N)=O)NC(=O)[C@@H](N)C(C)C)C(=O)N[C@@H](CCCNC(=N)N)C(=O)N[C@H](C(=O)N[C@@H](C)C(=O)N[C@H](C(=O)N[C@H](C(=O)N[C@@H](CCCNC(=N)N)C(=O)N[C@@H](C)C(N)=O)[C@@H](C)CC)C(C)C)C(C)C [HH2, VQLRIRVAVIRA] (H-VQLRIRVAVIRA-NH2)
MIC P. aerug [1]: >50 µg/mL
MIC C. albicans [2]: 25 µg/mL (≈ 17.9 µM)
MIC S. typhi [3]: 12 µg/mL (≈ 8.62 µM)
MIC S. aureus [4]: 50 µg/mL (≈ 35.9 µM)
MIC E. coli [5]: 6 µg/mL (≈ 4.31 µM)
MIC S. epi. [6]: 12 µg/mL (≈ 8.62 µM)
MIC E. faecalis [7]: 50 µg/mL (≈ 35.9 µM)

CC[C@H](C)[C@H](NC(=O)[C@H](CCCNC(=N)N)NC(=O)[C@H](Cc1ccccc1)NC(=O)[C@H](CCCNC(=N)N)NC(=O)[C@@H](N)C(C)C)C(=O)N[C@@H](CCCNC(=N)N)C(=O)N[C@H](C(=O)N[C@@H](C)C(=O)N[C@H](C(=O)N[C@H](C(=O)N[C@@H](CCCNC(=N)N)C(=O)N[C@@H](C)C(N)=O)[C@@H](C)CC)C(C)C)C(C)C [HH3, VRFRIRVAVIRA] (H-VRFRIRVAVIRA-NH2)
MIC P. aerug [1]: 6 µg/mL (≈ 4.12 µM)
MIC C. albicans [2]: 6 µg/mL (≈ 4.12 µM)
MIC S. typhi [3]: 6 µg/mL (≈ 4.12 µM)
MIC S. aureus [4]: 12 µg/mL (≈ 8.25 µM)
MIC E. coli [5]: 1.6 µg/mL (≈ 1.1 µM)
MIC S. epi. [6]: 1.6 µg/mL (≈ 1.1 µM)
MIC E. faecalis [7]: 25 µg/mL (≈ 17.2 µM)

CC[C@H](C)[C@H](NC(=O)[C@H](CCCNC(=N)N)NC(=O)[C@H](Cc1c[nH]c2ccccc12)NC(=O)[C@H](CCCNC(=N)N)NC(=O)[C@@H](N)C(C)C)C(=O)N[C@@H](CCCNC(=N)N)C(=O)N[C@H](C(=O)N[C@@H](C)C(=O)N[C@H](C(=O)N[C@H](C(=O)N[C@@H](CCCNC(=N)N)C(=O)N[C@@H](C)C(N)=O)[C@@H](C)CC)C(C)C)C(C)C [HH4, VRWRIRVAVIRA] (H-VRWRIRVAVIRA-NH2)
MIC P. aerug [1]: 6 µg/mL (≈ 4.02 µM)
MIC C. albicans [2]: 12 µg/mL (≈ 8.03 µM)
MIC S. typhi [3]: 6 µg/mL (≈ 4.02 µM)
MIC S. aureus [4]: 12 µg/mL (≈ 8.03 µM)
MIC E. coli [5]: 1.6 µg/mL (≈ 1.07 µM)
MIC S. epi. [6]: 1.6 µg/mL (≈ 1.07 µM)
MIC E. faecalis [7]: 12 µg/mL (≈ 8.03 µM)

CC[C@H](C)[C@H](NC(=O)[C@H](Cc1c[nH]c2ccccc12)NC(=O)[C@H](CC(C)C)NC(=O)[C@H](CCCNC(=N)N)NC(=O)[C@@H](N)C(C)C)C(=O)N[C@@H](CCCNC(=N)N)C(=O)N[C@H](C(=O)N[C@@H](C)C(=O)N[C@H](C(=O)N[C@H](C(=O)N[C@@H](CCCNC(=N)N)C(=O)N[C@@H](C)C(N)=O)[C@@H](C)CC)C(C)C)C(C)C [HH5, VRLWIRVAVIRA] (H-VRLWIRVAVIRA-NH2)
MIC P. aerug [1]: >50 µg/mL
MIC C. albicans [2]: 50 µg/mL (≈ 34.5 µM)
MIC S. typhi [3]: >50 µg/mL
MIC S. aureus [4]: 50 µg/mL (≈ 34.5 µM)
MIC E. coli [5]: 6 µg/mL (≈ 4.14 µM)
MIC S. epi. [6]: 3 µg/mL (≈ 2.07 µM)
MIC E. faecalis [7]: 25 µg/mL (≈ 17.2 µM)

CC[C@H](C)[C@H](NC(=O)[C@H](CCCNC(=N)N)NC(=O)[C@H](CC(C)C)NC(=O)[C@H](CCCNC(=N)N)NC(=O)[C@@H](N)C(C)C)C(=O)N[C@@H](CCCNC(=N)N)C(=O)N[C@H](C(=O)N[C@@H](Cc1c[nH]c2ccccc12)C(=O)N[C@H](C(=O)N[C@H](C(=O)N[C@@H](CCCNC(=N)N)C(=O)N[C@@H](C)C(N)=O)[C@@H](C)CC)C(C)C)C(C)C [HH6, VRLRIRVWVIRA] (H-VRLRIRVWVIRA-NH2)
MIC P. aerug [1]: 12 µg/mL (≈ 7.81 µM)
MIC C. albicans [2]: 25 µg/mL (≈ 16.3 µM)
MIC S. typhi [3]: 12 µg/mL (≈ 7.81 µM)
MIC S. aureus [4]: 6 µg/mL (≈ 3.91 µM)
MIC E. coli [5]: 3 µg/mL (≈ 1.95 µM)
MIC S. epi. [6]: 1.6 µg/mL (≈ 1.04 µM)
MIC E. faecalis [7]: 6 µg/mL (≈ 3.91 µM)

CC[C@H](C)[C@H](NC(=O)[C@H](CCCNC(=N)N)NC(=O)[C@H](CC(C)C)NC(=O)[C@H](CCCNC(=N)N)NC(=O)[C@@H](N)C(C)C)C(=O)N[C@@H](CCCNC(=N)N)C(=O)N[C@H](C(=O)N[C@@H](C)C(=O)N[C@H](C(=O)N[C@@H](CCCNC(=N)N)C(=O)N[C@@H](CCCNC(=N)N)C(=O)N[C@@H](C)C(N)=O)C(C)C)C(C)C [HH7, VRLRIRVAVRRA] (H-VRLRIRVAVRRA-NH2)
MIC P. aerug [1]: 12 µg/mL (≈ 8.2 µM)
MIC C. albicans [2]: 6 µg/mL (≈ 4.1 µM)
MIC S. typhi [3]: 6 µg/mL (≈ 4.1 µM)
MIC S. aureus [4]: 12 µg/mL (≈ 8.2 µM)
MIC E. coli [5]: 6 µg/mL (≈ 4.1 µM)
MIC S. epi. [6]: 1.6 µg/mL (≈ 1.09 µM)
MIC E. faecalis [7]: 25 µg/mL (≈ 17.1 µM)

CC[C@H](C)[C@H](NC(=O)[C@H](CCCNC(=N)N)NC(=O)[C@H](CC(C)C)NC(=O)[C@H](CCCNC(=N)N)NC(=O)[C@@H](N)C(C)C)C(=O)N[C@@H](CCCNC(=N)N)C(=O)N[C@H](C(=O)N[C@@H](C)C(=O)N[C@H](C(=O)N[C@H](C(=O)N[C@@H](CCCNC(=N)N)C(=O)N[C@@H](CCCCN)C(N)=O)[C@@H](C)CC)C(C)C)C(C)C [HH8, VRLRIRVAVIRK] (H-VRLRIRVAVIRK-NH2)
MIC P. aerug [1]: 6 µg/mL (≈ 4.06 µM)
MIC C. albicans [2]: 3 µg/mL (≈ 2.03 µM)
MIC S. typhi [3]: 6 µg/mL (≈ 4.06 µM)
MIC S. aureus [4]: 6 µg/mL (≈ 4.06 µM)
MIC E. coli [5]: 3 µg/mL (≈ 2.03 µM)
MIC S. epi. [6]: 1.6 µg/mL (≈ 1.08 µM)
MIC E. faecalis [7]: 12 µg/mL (≈ 8.12 µM)

CC[C@H](C)[C@H](NC(=O)[C@H](CCCNC(=N)N)NC(=O)[C@H](CC(C)C)NC(=O)[C@H](CCC(N)=O)NC(=O)[C@@H](N)C(C)C)C(=O)N[C@@H](CCCNC(=N)N)C(=O)N[C@H](C(=O)N[C@@H](CCCNC(=N)N)C(=O)N[C@H](C(=O)N[C@H](C(=O)N[C@@H](CCCNC(=N)N)C(=O)N[C@@H](CCCCN)C(N)=O)[C@@H](C)CC)C(C)C)C(C)C [HH9, VQLRIRVRVIRK] (H-VQLRIRVRVIRK-NH2; N-terminus assumed)
MIC P. aerug [1]: 6 µg/mL (≈ 3.91 µM)
MIC C. albicans [2]: 6 µg/mL (≈ 3.91 µM)
MIC S. typhi [3]: 6 µg/mL (≈ 3.91 µM)
MIC S. aureus [4]: 12 µg/mL (≈ 7.82 µM)
MIC E. coli [5]: 3 µg/mL (≈ 1.95 µM)
MIC S. epi. [6]: 1.6 µg/mL (≈ 1.04 µM)
MIC E. faecalis [7]: 12 µg/mL (≈ 7.82 µM)

RWWPWRR [HH996]
Antimicrobial activity [8]: +

— patent publication US8343475B2, “Small cationic antimicrobial peptides” (priority 2006, dated 2013)
